According to patent publication US12030879B2, “Sulfonyl acetamides as NLRP3 inhibitors” (Inflazome Limited, priority 2018, dated 2024):
Counter-ions that a name gives are not always drawn.

biological target: T1, NLRP3 (Homo sapiens, UniProt Q96P20); test: THP-1 cells pyroptosis assay; format: cell-based; details: LPS 1 μg/ml, compound 3 hrs, nigericin 5 μM 1 hr, resazurin readout
T1 construct: Seed THP-1 cells (25,000 cells/well) containing 1.0 μg/ml LPS in 40 μl of RPMI medium; host or cells: THP-1 cells
T1 sequence (Q96P20 whole entry): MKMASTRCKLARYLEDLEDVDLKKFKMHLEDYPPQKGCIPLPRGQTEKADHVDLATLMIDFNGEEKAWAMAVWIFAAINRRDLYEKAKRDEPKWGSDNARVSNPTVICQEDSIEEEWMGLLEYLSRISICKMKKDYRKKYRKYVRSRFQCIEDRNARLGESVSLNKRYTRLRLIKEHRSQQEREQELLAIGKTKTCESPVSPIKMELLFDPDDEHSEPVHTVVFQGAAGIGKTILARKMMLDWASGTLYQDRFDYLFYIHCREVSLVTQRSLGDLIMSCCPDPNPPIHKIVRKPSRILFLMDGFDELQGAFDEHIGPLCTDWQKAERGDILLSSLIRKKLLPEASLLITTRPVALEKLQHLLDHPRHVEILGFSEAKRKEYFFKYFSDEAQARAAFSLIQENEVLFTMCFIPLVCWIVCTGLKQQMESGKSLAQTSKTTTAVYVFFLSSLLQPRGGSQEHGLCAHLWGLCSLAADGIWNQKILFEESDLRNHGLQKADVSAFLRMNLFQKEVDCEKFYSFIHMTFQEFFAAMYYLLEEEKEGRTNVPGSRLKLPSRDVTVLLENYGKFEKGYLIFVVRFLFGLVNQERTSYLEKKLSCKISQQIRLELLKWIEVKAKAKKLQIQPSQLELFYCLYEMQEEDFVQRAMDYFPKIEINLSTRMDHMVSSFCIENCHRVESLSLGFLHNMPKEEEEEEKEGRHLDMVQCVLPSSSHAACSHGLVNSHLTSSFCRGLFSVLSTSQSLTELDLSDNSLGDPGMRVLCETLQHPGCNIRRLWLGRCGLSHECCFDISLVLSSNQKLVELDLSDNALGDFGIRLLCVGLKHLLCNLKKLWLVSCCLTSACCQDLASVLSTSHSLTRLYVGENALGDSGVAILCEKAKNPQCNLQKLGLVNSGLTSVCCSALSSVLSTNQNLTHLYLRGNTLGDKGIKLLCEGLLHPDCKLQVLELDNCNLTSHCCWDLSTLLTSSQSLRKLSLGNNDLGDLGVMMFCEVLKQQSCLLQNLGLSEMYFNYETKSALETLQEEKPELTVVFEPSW
Method: THP-1 cells (ATCC #TIB-202) were grown in RPMI containing L-glutamine (Gibco #11835) supplemented with 1 mM sodium pyruvate (Sigma #S8636) and penicillin (100 units/ml)/streptomycin (0.1 mg/ml) (Sigma #P4333) in 10% Fetal Bovine Serum (FBS) (Sigma #F0804). The cells were routinely passaged and grown to confluency (10^6 cells/ml). On the day of the experiment, THP-1 cells were harvested and resuspended into RPMI medium (without FBS). The cells were then counted and viability (>90%) checked by Trypan blue (Sigma #T8154). Appropriate dilutions were made to give a concentration of 625,000 cells/ml. To this diluted cell solution was added LPS (Sigma #L4524) to give a 1 μg/ml Final Assay Concentration (FAC). 40 μl of the final preparation was aliquoted into each well of a 96-well plate. The plate thus prepared was used for compound screening.
The following method step-by-step assay was followed for compound screening. • 1. Seed THP-1 cells (25,000 cells/well) containing 1.0 μg/ml LPS in 40 μl of RPMI medium (without FBS) in 96-well, black walled, clear bottom cell culture plates coated with poly-D-lysine (VWR #734-0317) • 2. Add 5 μl compound (8 points half-log dilution, with 10 μM top dose) or vehicle (DMSO 0.1% FAC) to the appropriate wells • 3. Incubate for 3 hrs at 37° C., 5% CO2 • 4. Add 5 μl nigericin (Sigma #N7143) (FAC 5 μM) to all wells • 5. Incubate for 1 hr at 37° C., 5% CO2 • 6. At the end of the incubation period, spin plates at 300×g for 3 mins and remove supernatant • 7. Then add 50 μl of resazurin (Sigma #R7017)(FAC 100 μM resazurin in RPMI medium without FBS) and incubate plates for a further 1-2 hrs at 37° C. and 5% CO2 • 8. Plates were read in an Envision reader at Ex 560 nm and Em 590 nm • 9. IC50 data is fitted to a non-linear regression equation (log inhibitor vs response-variable slope 4-parameters) 96-well Plate Map

COc1cc(-c2cc(F)cc(C(C)(C)F)c2CC(=O)NS(=O)(=O)c2cc(C(C)(C)O)cs2)ccn1 [Example 87, 2-(4-Fluoro-2-(2-fluoropropan-2-yl)-6-(2-methoxypyridin-4-yl)phenyl)-N-((4-(2-hydroxypropan-2-yl)thiophen-2-yl)sulfonyl)acetamide] was tested. Which IC50 did it give?
Its IC50 is ≤ 0.5 µM.

How did the IC50 turn out when COc1cc(-c2cc(F)cc(C(C)C)c2CC(=O)NS(=O)(=O)c2cccc(CO)c2)ccn1 [Example 38, 2-(4-Fluoro-2-isopropyl-6-(2-methoxypyridin-4-yl)phenyl)-N-((3-(hydroxymethyl)phenyl)sulfonyl)acetamide, potassium salt] was run?
The IC50 was ≤ 1 µM.

How did the IC50 turn out when COc1cc(-c2cc(F)cc(C(C)C)c2CC(=O)NS(=O)(=O)c2cn(C)c(=O)n(C)c2=O)ccn1 [Example 3, N-((1,3-Dimethyl-2,4-dioxo-1,2,3,4-tetrahydropyrimidin-5-yl)sulfonyl)-2-(4-fluoro-2-isopropyl-6-(2-methoxypyridin-4-yl)phenyl)acetamide] was run?
Its IC50 is ≤ 1 µM.

For COc1cc(-c2cc(F)cc(C(C)C)c2CC(=O)NS(=O)(=O)c2ccc(=O)n(C)c2)ccn1 [Example 1, 2-(4-Fluoro-2-isopropyl-6-(2-methoxypyridin-4-yl)phenyl)-N-((1-methyl-6-oxo-,6-dihydropyridin-3-yl)sulfonyl)acetamide, potassium salt], which IC50 is on record?
Its IC50 is ≤ 10 µM.

COc1cc(-c2cc(F)cc(C(C)C)c2CC(=O)NS(=O)(=O)c2ccc(Cl)cc2Cl)ccn1 [Example 13] was tested. Which IC50 did it give?
The IC50 was ≤ 1 µM.

For COc1cc(-c2cc(F)cc(C(C)C)c2CC(=O)NS(=O)(=O)c2ccc(Cl)cc2OC)ccn1 [Example 12], which IC50 is on record?
The IC50 was ≤ 1 µM.

With COc1cc(-c2cc(F)cc(C(C)C)c2CC(=O)NS(=O)(=O)c2ccc(C(C)C)cc2C)ccn1 [Example 157] as the compound, how does the IC50 read?
Its IC50 is ≤ 0.5 µM.

With COc1cc(-c2cc(F)cc(C(C)C)c2CC(=O)NS(=O)(=O)c2cc(C(=O)N(C)C)n(C)n2)ccn1 [Example 58, 3-(N-(2-(4-Fluoro-2-isopropyl-6-(2-methoxypyridin-4-yl)phenyl)acetyl)sulfamoyl)-N,N,1-trimethyl-1H-pyrazole-5-carboxamide] as the compound, how does the IC50 read?
Its IC50 is ≤ 1 µM.

With COc1cc(-c2cc(F)cc(C(C)C)c2CC(=O)NS(=O)(=O)c2c(F)cc(C)cc2F)ccn1 [Example 113] as the compound, how does the IC50 read?
Its IC50 is ≤ 1 µM.

For COc1cc(-c2cc(F)cc(C(C)C)c2CC(=O)NS(=O)(=O)c2cn(CC(C)C)nc2C)ccn1 [Example 208], which IC50 is on record?
The IC50 was ≤ 5 µM.

For COc1cc(-c2cc(F)cc(C(C)C)c2C(F)C(=O)NS(=O)(=O)c2cc(C(C)(C)O)cs2)ccn1 (centres unmarked) [Example 104, 2-Fluoro-2-(4-fluoro-2-isopropyl-6-(2-methoxypyridin-4-yl)phenyl)-N-((4-(2-hydroxypropan-2-yl)thiophen-2-yl)sulfonyl)acetamide], which IC50 is on record?
Its IC50 is ≤ 5 µM.

How did the IC50 turn out when CC(C)c1cc(F)cc(-c2ccncc2)c1CC(=O)NS(=O)(=O)c1ccn(C(C)(C)CN(C)C)n1 [Example 61, N-((1-(1-(Dimethylamino)-2-methylpropan-2-yl)-1H-pyrazol-3-yl)sulfonyl)-2-(4-fluoro-2-isopropyl-6-(pyridin-4-yl)phenyl)acetamide] was run?
Its IC50 is ≤ 5 µM.

For COc1cc(-c2cc(F)cc(C(C)C)c2CC(=O)NS(=O)(=O)c2ccc(C(C)(C)O)nc2)ccn1 [Example 171], which IC50 is on record?
The IC50 was ≤ 5 µM.

Which IC50 does the source give for COc1cc(-c2cc(F)cc(C(C)C)c2CC(=O)NS(=O)(=O)c2sccc2C(C)(C)O)ccn1 [Example 8] here?
The IC50 was ≤ 10 µM.

COc1cc(-c2cc(F)cc(C(C)C)c2CC(=O)NS(=O)(=O)c2cnn(CC(C)(C)O)c2)ccn1 [Example 193] was tested. Which IC50 did it give?
Its IC50 is ≤ 5 µM.

With COc1cc(-c2cc(F)cc(C(C)C)c2CC(=O)NS(=O)(=O)c2ccc(O)nc2C)ccn1 [Example 102, 2-(4-Fluoro-2-isopropyl-6-(2-methoxypyridin-4-yl)phenyl)-N-((6-hydroxy-2-methylpyridin-3-yl)sulfonyl)acetamide] as the compound, how does the IC50 read?
Its IC50 is ≤ 10 µM.

How did the IC50 turn out when CNc1cc(C)c(S(=O)(=O)NC(=O)Cc2c(-c3ccnc(OC)c3)cc(F)cc2C(C)C)cc1C [Example 155] was run?
The IC50 was ≤ 5 µM.

Which IC50 does the source give for COc1cc(-c2cc(F)cc(C(C)C)c2CC(=O)NS(=O)(=O)c2cc(Br)c(F)cc2F)ccn1 [Example 166] here?
The IC50 was ≤ 0.5 µM.

For COc1cc(-c2cc(F)cc(C(C)C)c2CC(=O)NS(=O)(=O)c2nnc(NC(C)=O)s2)ccn1 [Example 138], which IC50 is on record?
The IC50 was ≤ 10 µM.

COc1cc(-c2cc(F)cc(C(C)C)c2CC(=O)NS(=O)(=O)c2ccc3c(c2)CCCO3)ccn1 [Example 118] was tested. Which IC50 did it give?
Its IC50 is ≤ 1 µM.

How did the IC50 turn out when COc1cc(-c2cc(F)cc(C(C)C)c2CC(=O)NS(=O)(=O)c2ccn(C(C)(C)CO)n2)ccn1 [Example 195] was run?
The IC50 was ≤ 5 µM.

With COc1ccc(-c2cc(F)cc(C(C)C)c2CC(=O)NS(=O)(=O)c2ccc(C(C)(C)O)cc2C)cn1 [Example 97, 2-(4-Fluoro-2-isopropyl-6-(6-methoxypyridin-3-yl)phenyl)-N-((4-(2-hydroxypropan-2-yl)-2-methylphenyl)sulfonyl)acetamide] as the compound, how does the IC50 read?
The IC50 was ≤ 5 µM.

With Cc1nc(C(C)C)c(CC(=O)NS(=O)(=O)c2cc(C(C)C)c(F)cc2F)n1-c1ccncc1 [Example 202] as the compound, how does the IC50 read?
Its IC50 is ≤ 5 µM.

COc1cc(-c2cc(F)cc(C(C)C)c2CC(=O)NS(=O)(=O)c2ccc(Cl)cc2C)ccn1 [Example 136] was tested. Which IC50 did it give?
Its IC50 is ≤ 1 µM.

With COc1cc(-c2c(CC(=O)NS(=O)(=O)c3cc(C(C)(C)O)cs3)c(C(C)C)nn2C)ccn1 [Example 147] as the compound, how does the IC50 read?
The IC50 was ≤ 5 µM.

For COc1cc(-c2cc(F)cc(C(C)C)c2CC(=O)NS(=O)(=O)c2c(C)nn(C(C)C)c2C)ccn1 [Example 152], which IC50 is on record?
The IC50 was ≤ 5 µM.

COc1cc(-c2cc(F)cc(C(C)C)c2CC(=O)NS(=O)(=O)c2ccc(C(C)(C)F)cc2C)ccn1 [Example 134] was tested. Which IC50 did it give?
The IC50 was ≤ 0.5 µM.

Which IC50 does the source give for COc1cc(-c2cc(F)cc(C(C)C)c2CC(=O)NS(=O)(=O)c2cc(C(C)(C)O)ccn2)ccn1 [Example 170] here?
The IC50 was ≤ 0.5 µM.

COc1cc(-c2cc(F)cc(C(C)C)c2CC(=O)NS(=O)(=O)c2cccc(C(C)(C)O)c2)ccn1 [Example 89, 2-(4-Fluoro-2-isopropyl-6-(2-methoxypyridin-4-yl)phenyl)-N-((3-(2-hydroxypropan-2-yl)phenyl)sulfonyl)acetamide] was tested. Which IC50 did it give?
Its IC50 is ≤ 1 µM.

How did the IC50 turn out when COc1cc(-c2cc(F)cc(C(C)C)c2CC(=O)NS(=O)(=O)c2cc(C(=O)N(C)C)c(C)s2)ccn1 [Example 174] was run?
The IC50 was ≤ 0.5 µM.

With COc1cc(-c2cc(F)cc(C(C)C)c2CC(=O)NS(=O)(=O)c2cc(Br)cs2)ccn1 [Example 183] as the compound, how does the IC50 read?
The IC50 was ≤ 1 µM.

With COc1cc(-c2cc(F)cc(C(C)C)c2CC(=O)NS(=O)(=O)c2cc(C(C)(C)O)cs2)ccn1 [Example 26, 2-(4-Fluoro-2-isopropyl-6-(2-methoxypyridin-4-yl)phenyl)-N-((4-(2-hydroxypropan-2-yl)thiophen-2-yl)sulfonyl)acetamide] as the compound, how does the IC50 read?
Its IC50 is ≤ 0.5 µM.

With CCN(CC)CCCS(=O)(=O)NC(=O)Cc1c(-c2ccnc(OC)c2)cc(F)cc1C(C)C [Example 57, N-((3-(Diethylamino)propyl)sulfonyl)-2-(4-fluoro-2-isopropyl-6-(2-methoxypyridin-4-yl)phenyl)acetamide, potassium salt] as the compound, how does the IC50 read?
The IC50 was ≤ 5 µM.

COC(=O)c1cc(S(=O)(=O)NC(=O)Cc2c(-c3ccnc(OC)c3)cc(F)cc2C(C)C)ccc1F [Example 92, Methyl 2-fluoro-5-(N-(2-(4-fluoro-2-isopropyl-6-(2-methoxypyridin-4-yl)phenyl)acetyl)sulfamoyl)benzoate] was tested. Which IC50 did it give?
The IC50 was ≤ 5 µM.

For COc1cc(-c2cc(F)cc(C(C)C)c2CC(=O)NS(=O)(=O)c2c(C)nn(CC(C)C)c2C)ccn1 [Example 172], which IC50 is on record?
The IC50 was ≤ 5 µM.

Which IC50 does the source give for COc1cc(-c2cc(F)cc(C(C)C)c2CC(=O)NS(=O)(=O)c2cn(CC(F)F)nc2C)ccn1 [Example 169] here?
Its IC50 is ≤ 5 µM.

For COc1cc(-c2cc(F)cc(C(C)C)c2CC(=O)NS(=O)(=O)c2cc(F)c(Br)cc2C)ccn1 [Example 139], which IC50 is on record?
Its IC50 is ≤ 0.5 µM.

Which IC50 does the source give for COc1cc(-c2cc(F)cc(C(C)C)c2CC(=O)NS(=O)(=O)c2ccc(N(C)C)cc2C)ccn1 [Example 14] here?
Its IC50 is ≤ 0.5 µM.

COc1cc(-c2cc(F)cc(C(C)C)c2CC(=O)NS(=O)(=O)c2ccccc2)ccn1 [Example 111, 2-(4-Fluoro-2-isopropyl-6-(2-methoxypyridin-4-yl)phenyl)-N-(phenylsulfonyl)acetamide] was tested. Which IC50 did it give?
Its IC50 is ≤ 5 µM.

With COc1cc(-c2cc(F)cc(C(C)C)c2CC(=O)NS(=O)(=O)c2ccc(Cl)cc2)ccn1 [Example 93, N-((4-Chlorophenyl)sulfonyl)-2-(4-fluoro-2-isopropyl-6-(2-methoxypyridin-4-yl)phenyl)acetamide] as the compound, how does the IC50 read?
The IC50 was ≤ 1 µM.

Which IC50 does the source give for COc1cc(-c2cc(F)cc(C(C)C)c2CC(=O)NS(=O)(=O)c2ccc(CCN(C)C)cc2)ccn1 [Example 177] here?
Its IC50 is ≤ 5 µM.
